Measured values as given in publication PMC8475189, “The CopA2-Type P1B-Type ATPase CcoI Serves as Central Hub for cbb3-Type Cytochrome Oxidase Biogenesis” (Frontiers in Microbiology, 2021).

Target: T1, CcoI (Rhodobacter capsulatus, UniProt D5ARQ0)
T1 construct: full-length with C-terminal Myc-His tag (pBAD-ccoI-Myc/HisA), expressed in E. coli C43(DE3), purified in DDM, monomeric SEC peak; strain MT1131 is printed as wild type and as genomic template of the ccoI-senC fusion
T1 sequence (D5ARQ0 1-742): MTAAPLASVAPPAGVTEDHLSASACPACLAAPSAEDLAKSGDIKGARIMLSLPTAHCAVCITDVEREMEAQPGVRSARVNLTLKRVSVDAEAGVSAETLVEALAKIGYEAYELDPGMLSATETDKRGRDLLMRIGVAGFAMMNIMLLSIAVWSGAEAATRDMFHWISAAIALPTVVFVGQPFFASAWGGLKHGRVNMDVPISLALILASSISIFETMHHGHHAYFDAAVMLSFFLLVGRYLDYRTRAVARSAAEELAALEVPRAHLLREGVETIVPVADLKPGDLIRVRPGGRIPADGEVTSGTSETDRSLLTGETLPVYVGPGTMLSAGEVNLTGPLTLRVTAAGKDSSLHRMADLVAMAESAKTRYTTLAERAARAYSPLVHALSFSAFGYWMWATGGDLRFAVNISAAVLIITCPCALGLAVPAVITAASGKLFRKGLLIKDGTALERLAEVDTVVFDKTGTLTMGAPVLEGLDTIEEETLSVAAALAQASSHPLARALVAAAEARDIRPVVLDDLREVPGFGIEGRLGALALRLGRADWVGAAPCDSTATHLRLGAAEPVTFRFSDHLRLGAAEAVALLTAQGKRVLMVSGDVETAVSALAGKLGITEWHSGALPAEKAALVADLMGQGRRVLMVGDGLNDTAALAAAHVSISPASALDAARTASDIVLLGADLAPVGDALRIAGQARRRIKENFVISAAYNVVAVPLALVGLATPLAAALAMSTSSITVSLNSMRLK
Assay: […] phosphate release (charcoal, scintillation)
Type: biochemical
Conditions: labelled compound; 10-100 µM ATP, 10 mM MgCl2, 50 mM Tris pH 7.5, 300 mM NaCl, 0.03% DDM, 35 °C; no added Cu

Nc1ncnc2c1ncn2[C@@H]1O[C@H](COP(=O)(O)OP(=O)(O)OP(=O)(O)O)[C@@H](O)[C@H]1O [ATP]
33P phosphate release (charcoal, scintillation): ATPase activity of detergent-solubilized, purified CcoI
